According to patent US20130035255A1, “CONTROLLED RELEASE HYBRID SYSTEMS” (priority 2010, published 2013):
Where no end group is shown, it is not given here.

Assays:
[1] = target: HIV integrase (1-210 aa) and the peptide LYETILILLFLDVDT (SEQ ID NO:7) (Human immunodeficiency virus type 1 group M subtype B, UniProt P04585, G1270S/R1274K); type: cell-based; settings: yeast screening strain
GAL^BD-PRNHR-GAL^AD = GAL^BD-PRNHR-GAL^AD (Homo sapiens, UniProt P06401); type: cell-based, yeast; settings: control strain, FIG. 4
[2] = target: GAL4^AD-HIV integrase (1-210 a.a.) and GAL4^BD-PR^LBD-INF5 (Homo sapiens, UniProt P06401); test: steroid release two hybrid yeast LacZ assay (CUG fluorescence); type: cell-based; settings: strain expressing integrase fused to GAL4^AD and the interacting peptide
HIV integrase = HIV integrase (Human immunodeficiency virus type 1 group M subtype B, UniProt P04585); test: biochemical; type: binding
[3] = target: T1, GAL4^AD control (pVT 702, GAL4 activation domain alone); test: steroid release yeast two-hybrid, LacZ reporter
T1 construct: also called pADH-GAL^AD base vector
T1 chain: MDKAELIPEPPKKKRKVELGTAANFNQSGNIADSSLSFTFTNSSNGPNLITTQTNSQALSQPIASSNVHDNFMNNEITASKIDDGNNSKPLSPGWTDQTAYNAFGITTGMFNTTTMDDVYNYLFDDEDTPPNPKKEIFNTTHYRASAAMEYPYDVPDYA

## CC(=O)[C@H]1CC[C@H]2[C@@H]3CCC4=CC(=O)CC[C@]4(C)[C@H]3CC[C@]12C [progesterone]
[1]; 8 μM progesterone
  signal-to-background: ~4
[1]; FIG. 3 dose response
  expression of beta-galactosidase: stimulated expression of beta-galactosidase
GAL^BD-PRNHR-GAL^AD
  signal-to-background: ~100
[2]
  signal (RFU): increase in signal

## LYETILILLFLDVDT [SEQ ID NO:7, LYETILILLFLDVDT]
HIV integrase
  Kd: ~5 µM

B1: GAL4^BD-PR^LBD-INF5 hybrid protein (GAL4 DNA binding domain fused to the progesterone receptor ligand binding domain and the HIV integrase inhibitory peptide … (other)
chain: MKLLSSIEQACDICRLKKLKCSKEKPKCAKCLKNNWECRYSPKTKRSPLTRAHLTEVESRLERLEQLFLLIFPREDLDMILKMDSLQDIKALLTGLFVQDNVNKDAVTDRLASVETDMPLTLRQHRISATSSSEESSNKGQRQLTVSPVLQYPALTMIQLIPPLINLLMSIEPDVIYAGHDNTKPDTSSSLLTSLNQLGERQLLSVVKWSKSLPGFRNLHIDDQITLIQYSWMSLMVFGLGWRSYKHVSGQMLYFAPDLILNEQRMKESSFYSLCLTMWQIPQEFVKLQVSQEEFLCMKVLLLLNTIPLEGLRSQTQFEEMRSSYIRELIKAIGLRQKGVVSSSQRFYQLTKLLDNLHDLVKQLHLYCLNTFIQSRALSVEFPEMMSEVIAAQLPKILAGMVKPLLFHKALYETILILLFLDVDT
notes: also called GAL4^BD-PR^LBD-IN5
[3]
  binding result: no binding
